Experimental data reported in ChEMBL document CHEMBL1150994, “The chemical synthesis of large random peptide libraries and their use for the discovery of ligands for macromolecular acceptors” (Bioorg Med Chem Lett, 1993).
Activity calls are given as the source filed them. No cut-off for these calls is given here. Where a SMILES comes first, the peptide text is derived from it. [ ]: non-standard residue; d: D form. βAla = NCCC(=O)O

The molecules below were run on Monoclonal antibody (mAb) 3E7 (assay: Affinity towards anti-beta-endorphin MAb(Clone 3-E7) using [3H][Leu5]-enkephalin as labeled ligand at 10 uM concentration; not active).

Row | SMILES | Activity
1 | CC[C@H](C)[C@H](NC(=O)[C@H](Cc1ccccc1)NC(=O)[C@H](C)NC(=O)CNC(=O)[C@@H](N)Cc1ccc(O)cc1)C(=O)O (H-YGAFI-OH) | inactive
2 | NC(=O)CC[C@H](NC(=O)[C@H](Cc1ccccc1)NC(=O)[C@H](Cc1ccccc1)NC(=O)CNC(=O)[C@@H](N)Cc1ccc(O)cc1)C(=O)O (H-YGFFQ-OH) | inactive
3 | CC(C)C[C@H](NC(=O)[C@H](Cc1ccccc1)NC(=O)CNC(=O)CNC(=O)[C@@H](N)Cc1ccc(O)cc1)C(=O)O [ENKEPHALIN] | inactive
4 | CC(C)C[C@H](NC(=O)CNC(=O)[C@@H](N)Cc1ccc(O)cc1)C(=O)NCC(=O)N[C@@H](Cc1ccccc1)C(=O)O (H-YGLGF-OH) | inactive
5 | C[C@H](NC(=O)[C@H](CCC(=O)O)NC(=O)CNC(=O)[C@@H](N)Cc1ccc(O)cc1)C(=O)N[C@@H](Cc1ccccc1)C(=O)O (H-YGEAF-OH) | inactive
6 | C[C@H](NC(=O)CNC(=O)[C@@H](N)Cc1ccc(O)cc1)C(=O)N[C@@H](Cc1ccccc1)C(=O)N[C@@H](CCC(N)=O)C(=O)O (H-YGAFQ-OH) | inactive
7 | NC(=O)C[C@H](N)C(=O)N[C@@H](Cc1ccc(O)cc1)C(=O)NCC(=O)NCC(=O)N[C@@H](Cc1ccccc1)C(=O)O (H-NYGGF-OH) | inactive
8 | NC(=O)CC[C@H](NC(=O)[C@H](Cc1c[nH]c2ccccc12)NC(=O)[C@H](Cc1ccc(O)cc1)NC(=O)CNC(=O)[C@@H](N)Cc1ccc(O)cc1)C(=O)O (H-YGYWQ-OH) | inactive
9 | C[C@H](NC(=O)CNC(=O)[C@@H](N)Cc1ccc(O)cc1)C(=O)N[C@@H](Cc1c[nH]c2ccccc12)C(=O)N[C@@H](CC(=O)O)C(=O)O (H-YGAWD-OH) | inactive
10 | CC(C)[C@H](NC(=O)CNC(=O)[C@@H](N)Cc1ccc(O)cc1)C(=O)N[C@@H](Cc1ccccc1)C(=O)N[C@@H](CCC(=O)O)C(=O)O (H-YGVFE-OH) | inactive
11 | CC(C)[C@H](NC(=O)CNC(=O)[C@@H](N)Cc1ccc(O)cc1)C(=O)N[C@@H](Cc1ccccc1)C(=O)N[C@@H](C)C(=O)O (H-YGVFA-OH) | inactive
12 | N[C@@H](Cc1ccc(O)cc1)C(=O)NCC(=O)N[C@@H](Cc1ccc(O)cc1)C(=O)N[C@@H](Cc1ccccc1)C(=O)N[C@@H](Cc1ccccc1)C(=O)O (H-YGYFF-OH) | inactive
13 | CC[C@H](C)[C@H](NC(=O)[C@H](Cc1ccccc1)NC(=O)CNC(=O)CNC(=O)[C@@H](N)Cc1ccc(O)cc1)C(=O)O (H-YGGFI-OH) | inactive
14 | CC(C)C[C@H](NC(=O)[C@H](C)NC(=O)CNC(=O)[C@@H](N)Cc1ccc(O)cc1)C(=O)N[C@H](C(=O)O)[C@@H](C)O (H-YGALT-OH) | inactive
15 | NCCCC[C@H](NC(=O)[C@@H](N)Cc1ccc(O)cc1)C(=O)NCC(=O)NCC(=O)N[C@@H](Cc1ccccc1)C(=O)O (H-YKGGF-OH) | inactive
16 | C[C@H](NC(=O)[C@H](Cc1c[nH]cn1)NC(=O)CNC(=O)[C@@H](N)Cc1ccc(O)cc1)C(=O)N[C@@H](Cc1ccccc1)C(=O)O (H-YGHAF-OH) | inactive
17 | NC(=O)CC[C@H](NC(=O)[C@H](Cc1ccccc1)NC(=O)CNC(=O)CNC(=O)[C@@H](N)Cc1ccc(O)cc1)C(=O)O (H-YGGFQ-OH) | inactive
18 | CSCC[C@H](NC(=O)CNC(=O)[C@@H](N)Cc1ccc(O)cc1)C(=O)NCC(=O)N[C@@H](Cc1ccccc1)C(=O)O (H-YGMGF-OH) | inactive

Row | SMILES | Activity
19 | N[C@@H](Cc1ccc(O)cc1)C(=O)NCC(=O)NCC(=O)NCC(=O)N[C@@H](Cc1ccccc1)C(=O)O (H-YGGGF-OH) | inactive
20 | NC(=O)C[C@H](NC(=O)[C@H](Cc1ccccc1)NC(=O)[C@H](Cc1c[nH]c2ccccc12)NC(=O)CNC(=O)[C@@H](N)Cc1ccc(O)cc1)C(=O)O (H-YGWFN-OH) | inactive
21 | N[C@@H](Cc1ccc(O)cc1)C(=O)NCC(=O)N[C@@H](Cc1c[nH]c2ccccc12)C(=O)N[C@@H](Cc1ccccc1)C(=O)N[C@@H](Cc1c[nH]cn1)C(=O)O (H-YGWFH-OH) | inactive
22 | CC(C)C[C@H](N)C(=O)N[C@@H](Cc1ccc(O)cc1)C(=O)NCC(=O)NCC(=O)N[C@@H](Cc1ccccc1)C(=O)O (H-LYGGF-OH) | inactive
23 | CSCC[C@H](NC(=O)[C@H](Cc1ccccc1)NC(=O)[C@H](C)NC(=O)CNC(=O)[C@@H](N)Cc1ccc(O)cc1)C(=O)O (H-YGAFM-OH) | inactive
24 | N[C@@H](Cc1ccc(O)cc1)C(=O)NCC(=O)N1CCC[C@H]1C(=O)NCC(=O)N[C@@H](Cc1ccccc1)C(=O)O (H-YGPGF-OH) | inactive
25 | CC(C)[C@H](NC(=O)[C@H](Cc1ccccc1)NC(=O)[C@H](CCC(N)=O)NC(=O)CNC(=O)[C@@H](N)Cc1ccc(O)cc1)C(=O)O (H-YGQFV-OH) | inactive
26 | C[C@H](NC(=O)CNC(=O)[C@@H](N)Cc1ccc(O)cc1)C(=O)N[C@@H](Cc1ccccc1)C(=O)N[C@H](C(=O)O)[C@@H](C)O (H-YGAFT-OH) | inactive
27 | NC(=O)CC[C@H](NC(=O)[C@H](Cc1ccccc1)NC(=O)[C@H](Cc1c[nH]c2ccccc12)NC(=O)CNC(=O)[C@@H](N)Cc1ccc(O)cc1)C(=O)O (H-YGWFQ-OH) | inactive
28 | CC(C)C[C@H](NC(=O)[C@H](CC(C)C)NC(=O)CNC(=O)[C@H](Cc1ccc(O)cc1)NC(=O)[C@@H](N)CCCN=C(N)N)C(=O)O (H-RYGLL-OH) | inactive
29 | CC[C@H](C)[C@H](NC(=O)[C@H](Cc1ccccc1)NC(=O)[C@@H](NC(=O)CNC(=O)[C@@H](N)Cc1ccc(O)cc1)C(C)C)C(=O)O (H-YGVFI-OH) | inactive
30 | NC(=O)C[C@H](NC(=O)CNC(=O)[C@@H](N)Cc1ccc(O)cc1)C(=O)N[C@@H](Cc1ccccc1)C(=O)N[C@@H](Cc1ccccc1)C(=O)O (H-YGNFF-OH) | inactive
31 | CC(C)[C@H](NC(=O)CNC(=O)[C@@H](N)Cc1ccc(O)cc1)C(=O)N[C@@H](Cc1ccccc1)C(=O)N[C@@H](CCC(N)=O)C(=O)O (H-YGVFQ-OH) | inactive
32 | C[C@H](NC(=O)CNC(=O)[C@@H](N)Cc1ccc(O)cc1)C(=O)N[C@@H](Cc1ccccc1)C(=O)N[C@@H](Cc1ccccc1)C(=O)O (H-YGAFF-OH) | inactive
33 | CSCC[C@H](N)C(=O)N[C@@H](Cc1ccc(O)cc1)C(=O)NCC(=O)NCC(=O)N[C@@H](Cc1ccccc1)C(=O)O (H-MYGGF-OH) | inactive
34 | CC(C)C[C@H](NC(=O)[C@@H](N)Cc1ccc(O)cc1)C(=O)NCC(=O)NCC(=O)N[C@@H](Cc1ccccc1)C(=O)O (H-YLGGF-OH) | inactive
35 | CSCC[C@H](NC(=O)[C@H](Cc1c[nH]c2ccccc12)NC(=O)[C@H](Cc1c[nH]c2ccccc12)NC(=O)CNC(=O)[C@@H](N)Cc1ccc(O)cc1)C(=O)O (H-YGWWM-OH) | inactive
36 | NC(=O)CC[C@H](NC(=O)[C@@H](N)Cc1ccc(O)cc1)C(=O)NCC(=O)NCC(=O)N[C@@H](Cc1ccccc1)C(=O)O (H-YQGGF-OH) | inactive

What follows are molecules tested on Monoclonal antibody (mAb) 3E7 (assay: Affinity towards anti-beta-endorphin MAb(Clone 3-E7) using [3H][Leu5]-enkephalin as labeled ligand).

Row | SMILES | IC50 [nM]
37 | CC(C)C[C@H](NC(=O)[C@H](C)NC(=O)CNC(=O)[C@@H](N)Cc1ccc(O)cc1)C(=O)N[C@@H](CCC(N)=O)C(=O)NCCC(=O)O (H-YGALQ[βAla]-OH) | 1470
38 | CC(C)C[C@H](NC(=O)CNC(=O)CNC(=O)[C@@H](N)Cc1ccc(O)cc1)C(=O)N[C@@H](CO)C(=O)NCCC(=O)O (H-YGGLS[βAla]-OH) | 916
39 | CC(C)C[C@H](NC(=O)[C@H](C)NC(=O)CNC(=O)[C@@H](N)Cc1ccc(O)cc1)C(=O)N[C@@H](CCC(N)=O)C(=O)NCCC(N)=O (H-YGALQ[βAla]-NH2) | 2870
40 | CC(C)C[C@H](NC(=O)[C@H](C)NC(=O)CNC(=O)[C@@H](N)Cc1ccc(O)cc1)C(=O)N[C@@H](CCC(N)=O)C(N)=O (H-YGALQ-NH2) | 2910
41 | NC(=O)CC[C@H](NC(=O)[C@H](Cc1ccccc1)NC(=O)CNC(=O)CNC(=O)[C@@H](N)Cc1ccccc1)C(=O)O (H-FGGFQ-OH) | 15
42 | NC(=O)CC[C@H](NC(=O)[C@H](Cc1ccccc1)NC(=O)CNC(=O)CNC(=O)[C@@H](N)Cc1ccccc1)C(N)=O (H-FGGFQ-NH2) | 40.1
43 | C[C@H](NC(=O)[C@H](Cc1ccccc1)NC(=O)CNC(=O)CNC(=O)[C@@H](N)Cc1ccc(O)cc1)C(=O)NCCC(N)=O (H-YGGFA[βAla]-NH2) | 93.6
44 | CC(C)C[C@H](NC(=O)[C@H](Cc1ccccc1)NC(=O)CNC(=O)CNC(=O)[C@@H](N)Cc1ccc(O)cc1)C(=O)N[C@@H](C)C(N)=O (H-YGGFLA-NH2) | 13.7
45 | CSCC[C@H](NC(=O)CNC(=O)CNC(=O)[C@@H](N)Cc1ccc(O)cc1)C(=O)N[C@H](C(=O)NCCC(N)=O)C(C)C (H-YGGMV[βAla]-NH2) | 7160
46 | CC(C)C[C@H](NC(=O)[C@H](Cc1ccccc1)NC(=O)CNC(=O)CNC(=O)[C@@H](N)Cc1ccc(O)cc1)C(=O)N[C@@H](C)C(=O)O (H-YGGFLA-OH) | 17.1
47 | CC(C)C[C@H](NC(=O)CNC(=O)CNC(=O)[C@@H](N)Cc1ccc(O)cc1)C(=O)N[C@@H](CO)C(=O)NCCC(N)=O (H-YGGLS[βAla]-NH2) | 1150
48 | CC(C)C[C@H](NC(=O)[C@H](Cc1ccccc1)NC(=O)CNC(=O)CNC(=O)[C@@H](N)Cc1ccc(O)cc1)C(N)=O [[LEU5]ENKEPHALIN] | 27.3
49 | CSCC[C@H](NC(=O)CNC(=O)CNC(=O)[C@@H](N)Cc1ccc(O)cc1)C(=O)N[C@H](C(N)=O)C(C)C (H-YGGMV-NH2) | 14000
50 | C[C@@H](O)[C@H](NC(=O)[C@H](Cc1ccccc1)NC(=O)CNC(=O)CNC(=O)[C@@H](N)Cc1ccc(O)cc1)C(=O)NCCC(=O)O (H-YGGFT[βAla]-OH) | 50.6
51 | C[C@@H](O)[C@H](NC(=O)[C@H](Cc1ccccc1)NC(=O)CNC(=O)CNC(=O)[C@@H](N)Cc1ccc(O)cc1)C(=O)NCCC(N)=O (H-YGGFT[βAla]-NH2) | 43.3
52 | CC(C)C[C@H](NC(=O)CNC(=O)CNC(=O)[C@@H](N)Cc1ccc(O)cc1)C(=O)N[C@@H](CO)C(N)=O (H-YGGLS-NH2) | 991
53 | C[C@H](NC(=O)[C@H](Cc1ccccc1)NC(=O)CNC(=O)CNC(=O)[C@@H](N)Cc1ccc(O)cc1)C(N)=O (H-YGGFA-NH2) | 72
54 | CSCC[C@H](NC(=O)CNC(=O)CNC(=O)[C@@H](N)Cc1ccc(O)cc1)C(=O)N[C@H](C(=O)NCCC(=O)O)C(C)C (H-YGGMV[βAla]-OH) | 5140
